Test results reported in US8709391B2, “Family of pain producing substances and methods to produce novel analgesic drugs” (Board of Regents of the University of Texas System, priority 2008, dated 2014).

What was measured:
TRPV1 KO mice = test: hindpaw intraplantar (ipl) injection, thermal allodynia, TRPV1 KO mice; assay type: in vivo, mouse
TG neurons from WT mice = test: [Ca2+]i levels in cultured TG neurons from WT mice; assay type: cell-based, mouse; conditions: for [Ca2+]i response evoked in TG neurons / responding neurons / capsaicin-sensitive neurons: 100 μM
Method: (§1) FIGS. 1A-H depict that endogenous TRPV1 ligands are generated upon heat insult of mouse skin. The hypothesis of heat-evoked generation of endogenous TRPV1 ligand(s) was evaluated by harvesting mouse skin and then collecting superfusate samples after 20 min exposure to basal (37° C.=“control” skin) or noxious (48° C.=“heated” skin) temperatures. Aliquots of the two superfusates were applied, at room temperature, to cultured trigeminal ganglia (TG) neurons from wild type (WT) or TRPV1 knock out (TRPV1 KO) mice for measurement of evoked increases in intracellular calcium levels [Ca^2+]i. […] Conversely, there were no changes in [Ca^2+]i after application of supernatants from heated skin to either TRPV1 KO cultures (FIG. 1B; mustard oil served as a positive control) or to WT neurons insensitive to capsaicin (data not shown).
(§2) The pharmacological activity of synthetic 9-HODE and related compounds on sensory neurons was characterized. […] Another major metabolic pathway of linoleic acid leads to formation of 13-HODE and its metabolite, 13-oxoODE. The relative efficacy of these four compounds for evoked [Ca^2+]i levels was evident when tested in cultured neurons from WT mice (FIG. 3G) and in TRPV1-expressing CHO cells (FIG. 3H).
(§3) The epoxy metabolite, 9,10 EpOME (also known as leukotoxin), is highly elevated in burn patients and is implicated in shock in these patients.
(§4) FIG. 12 depicts the effect of lipids extracted from burned human skin samples against cultured trigeminal sensory neurons from control (wild type, “WT”) mice and from TRPV1 knock-out mice. Samples of burned human skin and control (non-burned) human skin from patients undergoing treatment in a hospital burn ward were obtained. The lipids from the skin samples were extracted by incubation with acetonitrile and the samples dried under nitrogen gas. The samples were tested against cultured trigeminal sensory neurons from control (wild type, “WT”) mice and from TRPV1 knock-out mice using real time imaging of calcium accumulation (fura-2 method). Extracts from human control (non burned) skin had no effect on activating neurons from either control (WT) or TRPV1 knockout (TRPV1 KO) mice. […] Thus, similar to the oxidized linoleic acid metabolites, the extracts from burned human skin activate TRPV1 and some other channels.

WT mice = test: hindpaw intraplantar (ipl) injection, thermal allodynia, WT mice; assay type: in vivo, mouse
[1] = tested on: TG neurons from TRPV1 KO mice; test: [Ca2+]i levels in cultured TG neurons from TRPV1 KO mice; assay type: cell-based, mouse
Method: as §1, §2, §3, §4

TRPV4 = molecular target: T1, TRPV4 (Homo sapiens, UniProt Q9HBA0); test: [Ca2+]i in CHO cells expressing TRPV4; assay type: cell-based; conditions: screening against other heat-sensitive TRP channels
T1 construct: expressed in transfected cells; host or cells: CHO cells
Text: as §3
FIG. 13 depicts the effect of lipids, extracted from burned human skin samples, and then applied to CHO cells that expressed either TRPV1, TRPV2, TRPV3, TRPV4 or TRPA1, using real time calcium imaging. As shown, the extracts of the burned human skin activated TRPV1, TRPV3, TRPV4 and TRPA1, but not TRPV2.

rats [2] = test: intrathecal application, tactile allodynia in rats; assay type: in vivo, rat
Text: FIGS. 9A-D depict that spinal injection (intrathecal) of capsaicin or 9-HODE into the spinal cord space results in tactile allodynia. This effect is mediated by activation of TRPV1 since it is blocked by a TRPV1 antagonist (AMG 9810). […] The results were compared with the results obtained with the positive control capsaicin. […] Comparison of the peak effect evoked by both capsaicin and 9-HODE is shown in FIGS. 9C-D. The effects were remarkably similar.

cultured rat TG neurons = test: CGRP release from cultured rat TG neurons evoked by 9-HODE; assay type: cell-based
rat TG neurons [3] = test: heat-evoked (48° C.) iCGRP release from rat TG neurons; assay type: cell-based; conditions: NDGA 10 uM, indomethacin 2 uM, I-RTX 200 nM
rat TG neurons [4] = test: activation of rat TG neurons by compound(s) released from heated skin, pretreatment with TRPV1 antagonist; assay type: cell-based; conditions: I-RTX 200 nM pretreatment; superfusates from skin exposed to 48° C.
Method: To further characterize the TRPV1 specificity of these endogenous heat-generated compound(s), the effect of pretreatment with the TRPV1 antagonist iodo-resiniferatoxin (I-RTX) on the activation of rat TG neurons was evaluated. […] Moreover, application of these compound(s) triggered prompt increases in [Ca]i in CHO cells expressing TRPV1, but not in negative control CHO cells that expressed a GFP construct (FIGS. 1E-F). Next, initial superfusion experiments in isolated mouse skin were expanded by collecting supernatant after exposure to various temperatures and evaluating the release of endogenous TRPV1 compound(s).

rats [5] = test: thermal nociception in rats after intraplantar hindpaw (ipl) injection; assay type: in vivo, rat; conditions: 100 ug/paw ipl, 15 minute, ipsilateral hindpaw
Method: The intraplantar hindpaw (ipl) injection of NDGA, miconazole, and a combination of anti 9-HODE and anti-13-HODE was compared to morphine sulfate, a gold standard analgesic. […] The studies were performed in a separate groups of animals for each condition and by observers blinded to treatment allocation (all compounds at 100 ug/paw and antibodies were each 25 ug/paw) (FIG. 10).

rat TG neurons [6] = test: patch clamp electrophysiology, heat (48° C.)-evoked inward current (Iheat) in rat TG neurons; assay type: cell-based; conditions: pretreatment, NDGA 30 uM, miconazole 100 uM
Method: FIGS. 5A-D depict that interventions reducing production or action of linoleic acid oxidation products results in decreased thermal pain. Whether heat-evoked activation of rat TG neurons is inhibited by interventions directed against linoleic acid metabolites was evaluated. […] Using patch clamp electrophysiology, the local application of a heat step (48° C.) produced a strong inward current (Iheat) in TG neurons. Pretreatment with NDGA produced ˜50% reduction (p<0.05) in Iheat. (FIG. 5B). In a similar patch clamp electrophysiology set up, pretreatment with miconazole (100 uM) produced more than 75% reduction (p<0.001) in Iheat (FIG. 5C). Whether intracellular immunoneutralization against 9-HODE and 13-HODE alters the responsiveness of sensory neurons to noxious heat was evaluated next. A solution containing both anti-9-HODE and anti-13-HODE antibodies (concentrations of 0.03-0.06 ug and 0.006-0.012 ug/patch pipette respectively) was delivered intracellularly via dialysis for 5 min prior to the application of a heat step (48° C.).

[7] = tested on: rat trigeminal sensory neurons; test: linoleic acid activation of rat trigeminal sensory neurons, intracellular calcium (Fura-2); assay type: cell-based; conditions: pretreatment; for inhibition of the formation of linoleic acid metabolites (neuron-activating compounds): concluded from the neuron activation test
Text: FIG. 14 depicts the effects of pretreatment with either cytochrome P450 inhibitors (NDGA, DPI, CO or ketoconazole, ODYA), nitric oxide synthase inhibitors (L-NAME, L-NNA), lipoxygenase inhibitors (BW-70C, PD, TEDC) or antioxidants (TROLOX, NAC, TEMPOL) versus negative controls (vehicle, argon) on the ability of linoleic acid to activate rat trigeminal sensory neurons as measured by real time levels of intracellular calcium (Fura-2, as indicated by the ratio of 340/380).

T1 sequence (Q9HBA0 whole entry, species assumed): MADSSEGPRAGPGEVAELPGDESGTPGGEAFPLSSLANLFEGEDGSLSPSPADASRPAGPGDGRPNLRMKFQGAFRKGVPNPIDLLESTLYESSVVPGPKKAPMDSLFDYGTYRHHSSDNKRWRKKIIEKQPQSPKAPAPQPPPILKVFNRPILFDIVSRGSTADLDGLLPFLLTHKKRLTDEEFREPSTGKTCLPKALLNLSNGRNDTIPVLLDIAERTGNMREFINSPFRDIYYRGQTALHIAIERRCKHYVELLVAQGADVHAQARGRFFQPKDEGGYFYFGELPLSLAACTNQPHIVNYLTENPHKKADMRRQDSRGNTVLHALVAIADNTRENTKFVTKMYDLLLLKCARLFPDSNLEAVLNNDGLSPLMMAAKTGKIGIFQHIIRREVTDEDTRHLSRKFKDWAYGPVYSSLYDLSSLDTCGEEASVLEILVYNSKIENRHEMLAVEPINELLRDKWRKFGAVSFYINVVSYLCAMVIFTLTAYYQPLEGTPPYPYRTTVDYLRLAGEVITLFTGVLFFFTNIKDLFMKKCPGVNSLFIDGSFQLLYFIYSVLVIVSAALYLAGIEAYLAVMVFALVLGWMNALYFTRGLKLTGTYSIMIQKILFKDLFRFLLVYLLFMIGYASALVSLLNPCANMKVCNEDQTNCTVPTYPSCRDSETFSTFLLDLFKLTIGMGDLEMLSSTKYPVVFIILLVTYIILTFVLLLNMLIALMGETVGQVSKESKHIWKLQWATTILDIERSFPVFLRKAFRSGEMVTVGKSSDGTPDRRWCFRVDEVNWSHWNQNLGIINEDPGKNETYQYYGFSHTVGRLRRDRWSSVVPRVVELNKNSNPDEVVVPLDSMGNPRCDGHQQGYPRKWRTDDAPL

For CCCCC/C=C\CC1OC1CCCCCCCC(=O)O (stereo not shown) [9,10 EpOME, (12Z)-9,10-epoxyoctadecenoic acid], the “thermal allodynia after ipl injection” value (TRPV1 KO mice; 50 μg/ipl) was “absent”, the “[Ca2+]i response evoked in TG neurons” value (TG neurons from WT mice) was “evoked calcium accumulation only in capsaicin-sensitive neurons” and the “responding neurons / capsaicin-sensitive neurons” value (TG neurons from WT mice) was 58/58. For the same molecule, the “thermal allodynia after ipl injection” value (WT mice; 50 μg/ipl) was “evoked thermal allodynia” and the “responding neurons / tested neurons” value [1] was 0/58.
CCCCCC=CCC(O)C(O)CCCCCCCC(=O)O (stereo not shown) [9,10-DiHOME, 9(10)-dihydroxy-octadec-12-enoic acid] was tested, and the TRPV4 agonist activity (TRPV4) was “TRPV4 agonist”.
For CCCCC/C=C\C=C\C(O)CCCCCCCC(=O)O (stereo not shown) [9-HODE, 9-hydroxyoctadecadienoic acid], the “tactile allodynia evoked by intrathecal application” value (rats [2]; 5 ug intrathecal) was “evoked tactile allodynia that was of similar magnitude and duration to that of capsaicin”, the “thermal allodynia after ipl injection” value (TRPV1 KO mice; blinded observers) was “not in TRPV1 KO mice” and the “[Ca2+]i response evoked in TG neurons” value (TG neurons from WT mice) was “robust response”. The “responding neurons / capsaicin-sensitive neurons” value (TG neurons from WT mice) was 75/75, the “thermal allodynia after ipl injection” value (WT mice; blinded observers) was “significantly greater thermal allodynia” and the “concentration at which effects on CGRP release are evident” value (cultured rat TG neurons) was 10 nM. For the same molecule, the EC50 (cultured rat TG neurons; read-out: EC50 of increase in CGRP release) was ~300 nM, the “magnitude of [Ca2+]i accumulation and its time course compared to WT neurons” value [1] was “greatly reduced” and the “responding neurons / tested neurons” value [1] was 3/66. For the same molecule, the “tested neurons with a slight response” value [1] was 4%.
In the case of CCCCC/C=C\C=C\C(=O)CCCCCCCC(=O)O [9-oxoODE, (10E,12Z)-9-oxooctadeca-10,12-dienoic acid], the “[Ca2+]i levels after application” value (TG neurons from WT mice; concentration not given) is reported as “triggered increased [Ca^2+]i levels” and the “[Ca2+]i levels after application” value ([1]; concentration not given) is reported as “not in neurons from TRPV1 KO mice”.
With CC(C)(C)c1ccc(/C=C/C(=O)Nc2ccc3c(c2)OCCO3)cc1 [AMG 9810] the “reversal of 9-HODE-evoked tactile allodynia” value (rats [2]; AMG 9810 50 ug, 9-HODE 5 ug intrathecal) was “completely reversible”, the “reversal of capsaicin-evoked tactile allodynia” value (rats [2]; AMG 9810 50 ug, capsaicin 5 ug intrathecal) was “completely reversible” and the “effect alone on mechanical withdrawal thresholds” value (rats [2]; antagonist alone, intrathecal) was “Neither the vehicle nor AMG 9810 alone had any effect”.
C=C(C)[C@]12C[C@@H](C)[C@@]34O[C@](Cc5ccccc5)(O[C@@H]1[C@@H]3C=C(COC(=O)Cc1cc(I)c(O)c(OC)c1)C[C@]1(O)C(=O)C(C)=C[C@@H]41)O2 [I-RTX, iodo-resiniferatoxin] was tested, and the “reversal of heat-evoked iCGRP release by pretreatment” value (from here on “reversal of heat-evoked iCGRP release”) (rat TG neurons [3]) was “partially reversed” and the “block of activation of neurons by compound(s) released from heated skin” value (rat TG neurons [4]) was “completely blocked”.
CC(Cc1ccc(O)c(O)c1)C(C)Cc1ccc(O)c(O)c1 (stereo not shown) [NDGA, Nordihydroguaiaretic Acid] was tested, and the thermal antinociception (rats [5]) was “thermal antinociception far beyond that of the vehicle or morphine injected rats”, the “reversal of heat-evoked iCGRP release” value (rat TG neurons [3]) was “partially reversed” and the “reduction in Iheat” value (rat TG neurons [6]) was ~50%.
In the case of C#CCCCCCCCCCCCCCCCC(=O)O [ODYA, 17-Octadecynoic acid], the “inhibition of the formation of linoleic acid metabolites (neuron-activating compounds)” value [7] is reported as “does not”.
For COc1cc(CNC(=O)CCCC/C=C/C(C)C)ccc1O [capsaicin], the “duration of tactile allodynia post injection” value (rats [2]; 5 ug intrathecal) was 1 h and the “tactile allodynia evoked by intrathecal application” value (rats [2]; 5 ug intrathecal) was “evoked tactile allodynia”.
In the case of COc1ccc2c(c1)c(CC(=O)O)c(C)n2C(=O)c1ccc(Cl)cc1 [indomethacin], the “reversal of heat-evoked iCGRP release” value (rat TG neurons [3]) is reported as “not”.
For CC(=O)N1CCN(c2ccc(OCC3COC(Cn4ccnc4)(c4ccc(Cl)cc4Cl)O3)cc2)CC1 (stereo not shown) [ketoconazole], the “block of the ability of linoleic acid to activate pain neurons” value ([7]; Fura-2 ratio 340/380) was “completely blocked” and the “inhibition of the formation of linoleic acid metabolites (neuron-activating compounds)” value [7] was “inhibits the formation of linoleic acid metabolites”.
In the case of Clc1ccc(COC(Cn2ccnc2)c2ccc(Cl)cc2Cl)c(Cl)c1 (stereo not shown) [miconazole], the thermal antinociception (rats [5]) is reported as “thermal antinociception far beyond that of the vehicle or morphine injected rats” and the “reduction in Iheat” value (rat TG neurons [6]) is reported as “more than 75%”.
